Experimental data reported in US7906510B2, “Amide derivative and pharmaceutical composition containing the same” (Dainippon Sumito Pharma Co., Ltd., priority 2008, dated 2011).
Structures can show the parent of a compound that is named as a salt.

target: T1, 5-HT4 receptor (Cavia porcellus, UniProt O70528); test: Serotonin 4 (5-HT4) receptor binding assay; set-up: species or system guinea pig; conditions: not given
T1 construct: the mixture was suspended to give receptor membrane preparations; from tissue; host or cells: guinea pig (Slc-Hartley) brain striatum membranes
Procedure: 5-HT4 receptor binding assay and preparations of receptor membrane preparations were carried out according to a method of Grossman et al. [see British J. Pharmacol., (1993) 109, 618].
Slc-Hartley guinea pigs (body weight 300 to 400 g) were decapitated to remove brain rapidly, and striatum was isolated. To the obtained tissues were added fifteenfold of Hepes buffer (50 mM, pH7.4, 4° C.), and the mixture was homogenized by Teflon® homogenizer and centrifuged at 48,000×g (4° C.) for 15 minutes. To the resulting precipitate was added Hepes buffer (1 ml) to 30 mg by wet weight of tissues, and the mixture was suspended to give receptor membrane preparations.
0.1 nM [^3H]-GR113808 {chemical name: [1-[2-(methylsulfonylamino)ethyl]-4-piperidinyl]methyl 1-methylindole-3-carboxylate}, receptor membrane preparations, and Hepes buffer (50 mM, pH7.4, 4° C., 1 ml) containing test compounds or 30 μM serotonin were placed in an assay tube, and incubated at 37° C. for 30 minutes. On quenching the reaction, the mixture was rapidly filtered on whatman GF/B filter, which was presoaked in 0.1% polyethyleneimine for 1 hour, by using Brandel cell Harvester, and washed with ice-cooled 50 mM Tris-HCl (pH7.7, 4 ml) three times. To the filter after filtration was added ACS II scintillator, and then a radioactivity was determined by a liquid scintillation counter.
50% inhibition concentrations (IC50) were determined from inhibition rates of test compounds to specific bindings which were obtained by subtracting nonspecific bindings from total binding amounts of [^3H]-GR113808.

T1 sequence (O70528 whole entry): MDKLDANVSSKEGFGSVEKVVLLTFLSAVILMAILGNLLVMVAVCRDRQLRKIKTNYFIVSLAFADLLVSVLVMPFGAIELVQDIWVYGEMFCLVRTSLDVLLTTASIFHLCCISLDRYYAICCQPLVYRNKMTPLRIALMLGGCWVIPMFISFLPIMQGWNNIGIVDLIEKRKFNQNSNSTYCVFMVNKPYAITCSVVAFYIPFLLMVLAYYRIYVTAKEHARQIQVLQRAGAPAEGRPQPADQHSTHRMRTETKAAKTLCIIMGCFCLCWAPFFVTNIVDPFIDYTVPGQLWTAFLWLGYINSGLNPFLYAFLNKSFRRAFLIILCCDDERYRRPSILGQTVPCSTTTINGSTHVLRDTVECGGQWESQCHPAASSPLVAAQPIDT

Q: For `COc1ccccc1OC(=O)N1CCC(CN2CCO[C@@H](CNC(=O)c3cc(Cl)c(N)cc3OC)C2)CC1` [Example 107], which IC50 is on record?
A: 3.43 nM

Q: How did the IC50 turn out when `COc1cc(N)c(Cl)cc1C(=O)NC[C@H]1CN(CC2CCN(C(=O)Oc3ccccc3)CC2)CCO1` [Example 106] was run?
A: 6.12 nM

same assay, conditions: inhibition of specific binding of 0.1 nM [3H]-GR113808; guinea pig striatum membrane preparations; 37° C., 30 minutes; read-out: IC50

Q: With `COc1cc(N)c(Cl)cc1C(=O)NC[C@H]1CN(CC2CCN(C(=O)OCC(C)C)CC2)CCO1` [Example 102] as the compound, how does the IC50 read?
A: 6.79 nM

Q: Which IC50 does the source give for `COc1cc(N)c(Cl)cc1C(=O)NC[C@H]1CN(CC2CCN(C(=O)CC3CCNCC3)CC2)CCO1` [Example 194] here?
A: 10.1 nM

Q: For `CN(C)C(=O)N1CCC(CN2CCO[C@@H](CNC(=O)c3cc(Cl)c(N)c4c3OCC4)C2)CC1` [Example 136], which IC50 is on record?
A: 4.26 nM

Q: Which IC50 does the source give for `COc1cc(N)c(Cl)cc1C(=O)NC[C@H]1CN(CC2CCN(C(=O)c3cccc(O)c3)CC2)CCO1` [Example 201] here?
A: 4.45 nM

Q: How did the IC50 turn out when `COc1cc(N)c(Cl)cc1C(=O)NC[C@H]1CN(CC2CCN(C(=O)c3ccc(C)cc3)CC2)CCO1` [Example 120] was run?
A: 2.63 nM

Q: `COC(=O)c1ccc(C(=O)N2CCC(CN3CCO[C@@H](CNC(=O)c4cc(Cl)c(N)cc4OC)C3)CC2)cc1` [Example 174] was tested. Which IC50 did it give?
A: 8.52 nM

Q: `COc1cc(N)c(Cl)cc1C(=O)NC[C@H]1CN(CC2CCN(C(=O)c3ccc(N)c(Cl)c3)CC2)CCO1` [Example 176] was tested. Which IC50 did it give?
A: 0.72 nM

Q: For `COc1cc(N)c(Cl)cc1C(=O)NC[C@H]1CN(CC2CCN(C(=O)Nc3cccc(C(C)=O)c3)CC2)CCO1` [Example 56], which IC50 is on record?
A: 2.9 nM

Q: `C=CC=CC(=O)N1CCC(CN2CCOC(CNC(=O)c3cc(Cl)c(N)cc3OCC)C2)CC1` (racemic) [Example 163] was tested. Which IC50 did it give?
A: 6.58 nM

Q: How did the IC50 turn out when `COc1cc(N)c(Cl)cc1C(=O)NC[C@H]1CN(CC2CCN(C(=O)c3ccco3)CC2)CCO1` [Example 131] was run?
A: 6.96 nM

Q: `COc1cc(N)c(Cl)cc1C(=O)NC[C@H]1CN(CC2CCN(C(=O)NCc3ccc(Cl)cc3Cl)CC2)CCO1` [Example 62] was tested. Which IC50 did it give?
A: 2.51 nM

Q: With `COC(=O)N1CCC(CN2CCOC(CNC(=O)c3cc(Cl)c(N)c4c3OCC4)C2)CC1` (centres unmarked) [Example 138] as the compound, how does the IC50 read?
A: 2.8 nM

Q: `Nc1c(Cl)cc(C(=O)NC[C@H]2CN(CC3CCN(C(=O)CO)CC3)CCO2)c2c1CCO2` [Example 233, (S)-4-amino-5-chloro-N-[{4-[(1-hydroxyacetyl-4-piperidinyl)methyl]-2-morpholinyl}methyl]-2,3-dihydrobenzo[b]furan-7-carboxamide] was tested. Which IC50 did it give?
A: 12.1 nM

Q: For `COc1cc(N)c(Cl)cc1C(=O)NC[C@H]1CN(CC2CCN(C(=O)N3CCCC3)CC2)CCO1` [Example 89], which IC50 is on record?
A: 7.33 nM

Q: With `CCOc1cc(N)c(Cl)cc1C(=O)NCC1CN(CC2CCN(C(=O)N3CCCC3)CC2)CCO1` (centres unmarked) [Example 90, 4-amino-5-chloro-2-ethoxy-N-[{4-[(1-(1-pyrrolidinecarbonyl)-4-piperidinyl)-methyl]-2-morpholinyl}methyl]benzamide 1.5 fumarate] as the compound, how does the IC50 read?
A: 6.98 nM

Q: With `COc1cc(N)c(Cl)cc1C(=O)NC[C@H]1CN(CC2CCN(C(=O)c3ccccc3Oc3ccccc3)CC2)CCO1` [Example 170] as the compound, how does the IC50 read?
A: 5.65 nM

Q: `C=CCCC=CC(=O)N1CCC(CN2CCOC(CNC(=O)c3cc(Cl)c(N)cc3OCC)C2)CC1` (racemic) [Example 164] was tested. Which IC50 did it give?
A: 7.5 nM

Q: How did the IC50 turn out when `CCOc1cc(N)c(Cl)cc1C(=O)NC[C@H]1CN(CC2CCN(C(=O)c3ccc(OC)cc3)CC2)CCO1` [Example 126] was run?
A: 2.32 nM

Q: Which IC50 does the source give for `COc1ccccc1NC(=O)N1CCC(CN2CCO[C@@H](CNC(=O)c3cc(Cl)c(N)cc3OC)C2)CC1` [Example 53] here?
A: 1.46 nM

Q: For `CCOc1cc(N)c(Cl)cc1C(=O)NC[C@H]1CN(CC2CCN(C(=O)NC)CC2)CCO1` [Example 47], which IC50 is on record?
A: 8.04 nM

Q: `CCOc1cc(N)c(Cl)cc1C(=O)NC[C@H]1CN(CC2CCN(C(=O)c3ccccc3OC(C)=O)CC2)CCO1` [Example 167] was tested. Which IC50 did it give?
A: 6.36 nM

Q: How did the IC50 turn out when `COc1cc(N)c(Cl)cc1C(=O)NC[C@H]1CN(CC2CCN(C(=O)c3ccc(C)s3)CC2)CCO1` [Example 178] was run?
A: 1.24 nM

Q: Which IC50 does the source give for `COc1cc(N)c(Cl)cc1C(=O)NC[C@H]1CN(CC2CCN(C(=O)c3cccc(OC(C)=O)c3)CC2)CCO1` [Example 168] here?
A: 5.17 nM

Q: `COc1cc(N)c(Cl)cc1C(=O)NC[C@H]1CN(CC2CCN(C(=O)c3ccc(-c4ccccc4)cc3)CC2)CCO1` [Example 175] was tested. Which IC50 did it give?
A: 6.13 nM

Q: `COc1cc(N)c(Cl)cc1C(=O)NC[C@H]1CN(CC2CCN(C(=O)NCc3ccccc3)CC2)CCO1` [Example 59] was tested. Which IC50 did it give?
A: 2.83 nM

Q: For `COc1cc(N)c(Cl)cc1C(=O)NC[C@H]1CN(CC2CCN(C(=O)NCc3ccccc3C)CC2)CCO1` [Example 60], which IC50 is on record?
A: 1.86 nM

Q: How did the IC50 turn out when `COc1cc(N)c(Cl)cc1C(=O)NC[C@H]1CN(CC2CCN(C(=O)c3ccc(O)cc3)CC2)CCO1` [Example 202] was run?
A: 4.52 nM

Q: Which IC50 does the source give for `COc1cc(N)c(Cl)cc1C(=O)NC[C@H]1CN(CC2CCN(C(=O)c3ccc(N(C)C)cc3)CC2)CCO1` [Example 172] here?
A: 0.87 nM

Q: For `COc1cc(N)c(Cl)cc1C(=O)NC[C@H]1CN(CC2CCN(C(=O)c3cccc(N(C)C)c3)CC2)CCO1` [Example 171], which IC50 is on record?
A: 2.16 nM

Q: How did the IC50 turn out when `CCOc1cc(N)c(Cl)cc1C(=O)NCC1CN(CC2CCN(C(=O)c3ccccc3)CC2)CCO1` (centres unmarked) [Example 112] was run?
A: 3.01 nM

Q: Which IC50 does the source give for `COc1cc(N)c(Cl)cc1C(=O)NC[C@H]1CN(CC2CCN(C(=O)c3ccccc3C)CC2)CCO1` [Example 118] here?
A: 1.7 nM

Q: For `COc1ccc(CNC(=O)N2CCC(CN3CCO[C@@H](CNC(=O)c4cc(Cl)c(N)cc4OC)C3)CC2)cc1` [Example 61], which IC50 is on record?
A: 3.7 nM

Q: For `COc1cc(N)c(Cl)cc1C(=O)NC[C@H]1CN(CC2CCN(C(=O)Nc3cc(C)cc(C)c3)CC2)CCO1` [Example 57], which IC50 is on record?
A: 1.82 nM

Q: For `COc1cc(N)c(Cl)cc1C(=O)NC[C@H]1CN(CC2CCN(C(=O)c3ccc(C(C)(C)C)cc3)CC2)CCO1` [Example 123], which IC50 is on record?
A: 2.11 nM

Q: Which IC50 does the source give for `CS(=O)(=O)N1CCC(CN2CCOC(CNC(=O)c3cc(Cl)c(N)c4c3OCC4)C2)CC1` (centres unmarked) [Example 140] here?
A: 2.84 nM

Q: `COc1cc(N)c(Cl)cc1C(=O)NC[C@H]1CN(CC2CCN(C(=O)c3cccc(Br)c3)CC2)CCO1` [Example 117] was tested. Which IC50 did it give?
A: 0.04 nM

Q: For `CCCOC(=O)N1CCC(CN2CCO[C@@H](CNC(=O)c3cc(Cl)c(N)cc3OC)C2)CC1` [Example 98], which IC50 is on record?
A: 9.62 nM

Q: With `CCOc1cc(N)c(Cl)cc1C(=O)NC[C@H]1CN(CC2CCN(C(=O)n3ccnc3)CC2)CCO1` [Example 206, (S)-4-amino-5-chloro-2-ethoxy-N-[{4-[(1-imidazolecarbonyl-4-piperidinyl)-methyl]-2-morpholinyl}methyl]benzamide] as the compound, how does the IC50 read?
A: 10.6 nM

Q: `C=CCCCCC(=O)N1CCC(CN2CCOC(CNC(=O)c3cc(Cl)c(N)cc3OCC)C2)CC1` (racemic) [Example 162] was tested. Which IC50 did it give?
A: 7.9 nM

Q: Which IC50 does the source give for `COc1cc(N)c(Cl)cc1C(=O)NC[C@H]1CN(CC2CCN(C(=O)NCCc3ccccc3)CC2)CCO1` [Example 63] here?
A: 8.6 nM

Q: Which IC50 does the source give for `COc1cc(N)c(Cl)cc1C(=O)NC[C@H]1CN(CC2CCN(C(=O)c3cccc(F)c3)CC2)CCO1` [Example 113] here?
A: 2.23 nM

Q: For `CCOc1cc(N)c(Cl)cc1C(=O)NCC1CN(CC2CCN(C(=O)c3cccc(F)c3)CC2)CCO1` (centres unmarked) [Example 114], which IC50 is on record?
A: 2.22 nM

Q: `COc1cc(N)c(Cl)cc1C(=O)NC[C@H]1CN(CC2CCN(C(=O)c3cccc4c3OCC4)CC2)CCO1` [Example 177] was tested. Which IC50 did it give?
A: 1.62 nM

Q: With `Nc1c(Cl)cc(C(=O)NCC2CN(CC3CCN(C(=O)N4CCCC4)CC3)CCO2)c2c1CCO2` (centres unmarked) [Example 134] as the compound, how does the IC50 read?
A: 1.5 nM

system: Male Slc-ddy mice; test: Mouse defecation assay; type: in vivo; set-up: key: −: No Effect; +: Moderately Improved (p<0.05); ++: Significantly Improved (p<0.01); conditions: 3 mg/kg orally; stool weight 30, 60 and 120 minutes after administration; Dunnett assay vs control
Procedure: Male Slc-ddy mice (body weight 25 to 30 g) were used and allowed to ingest food and water ad libitum until commencement of experiments.
A group of 25 mice was divided into 5 groups, which 5 mice each per group were respectively transferred to fasting cages to adjust to new environments for about 1 hour. Then, each mouse was orally administered 3 mg/kg suspension of a test compound in 0.5% tragacanth solution to measure each stool weight of each group 30, 60, and 120 minutes after oral administration.
Efficacies were evaluated by Dunnett assay between test compounds and control.

Q: With `COC(=O)N1CCC(CN2CCOC(CNC(=O)c3cc(Cl)c(N)c4c3OCC4)C2)CC1` (centres unmarked) [Example 138] as the compound, how does the Effect read?
A: ++

Q: For `Nc1c(Cl)cc(C(=O)NC[C@H]2CN(CC3CCN(C(=O)CO)CC3)CCO2)c2c1CCO2` [Example 233, (S)-4-amino-5-chloro-N-[{4-[(1-hydroxyacetyl-4-piperidinyl)methyl]-2-morpholinyl}methyl]-2,3-dihydrobenzo[b]furan-7-carboxamide], which Effect is on record?
A: ++

Q: Which Effect does the source give for `COc1cc(N)c(Cl)cc1C(=O)NC[C@H]1CN(CC2CCN(C(=O)N3CCCC3)CC2)CCO1` [Example 89] here?
A: +

Q: Which Effect does the source give for `COc1cc(N)c(Cl)cc1C(=O)NC[C@H]1CN(CC2CCN(C(=O)N(C(C)C)C(C)C)CC2)CCO1.Cl` [Example 88] here?
A: ++
